Reference: patent US20250127804A1, “RIBOSE LINKERS AND CONJUGATES THEREOF” (ELYSIUM HEALTH INC., priority 2022, published 2025)
“And” between values parts separate entries of the source, which are not always exact repeats. Identical values can stand only once. “Also recorded” adds a separate entry of the source. Like-named read-outs stand apart in the source and are kept apart here.

Legend:
[1] = test system: purine nucleoside phosphorylase (PNP); experiment: PNP enzyme activity assay (release of NAM monitored by 1H NMR); type: in vitro ADME; details: for stability to PNP (in words): triflates dissolved in DMSO; for overall trend of stability of NR esters to PNP: rank order; for ester hydrolysis / deprotection observed during PNP incubation: over time
Method: To ensure that the stability rather than the solubility could be investigated, both the triflate and the chloride form of NRLR (“NRLR-OTf” and “NRLR-Cl”, respectively) were tested for their stability in aqueous buffers and as substrates of the enzyme purine nucleoside phosphorylase (PNP). The release of nicotinamide (NAM) was measured, which is indicative of water-catalyzed hydrolysis. Further, the release of ribose vs. phosphoriboside was monitored, which is indicative of PNP activity. Loss of esters via hydrolysis in buffer catalyzed condition also occurs over time. Once the C5-hydroxyl is free, PNP recognizes the nucleoside and catalyze phosphorolysis. It is not known whether this hydrolysis must occur for all the esters before PNP can act on the nucleoside. The scheme below illustrates the reaction with a partially deprotected nucleoside.
Phosphorolysis of NRCl by PNP (Sigma Aldrich) was performed in HEPES buffer, containing KH2PO4 and 10% D2O at 25° C. and was monitored by 1H NMR.
Incubations were conducted in the NMR tube which contained a final volume of 505 μl including 450 μl HEPES buffer (100.0 mM, pH 7.0), containing 100 mM KH2PO4, 50.0 μl NRCl (100.0 mM in 1 mL D2O) and when appropriate 5 μl PNP (1 mg dissolved in 50 μl HEPES buffer) was added and measurements were taken at t=5 min and 15 min.
Similarly, PNP study of NRAD-triflate was conducted in DMSO.

Solubility in water = type: physicochemical
[2] = Octanol-water partition coefficient (Pow) by 1H NMR; type: physicochemical
Method: The experiment was performed as described in “Measuring Lipophilicity with NMR,” SpinSolve Carbon®, MagriTek (2014). Briefly, ^1H NMR spectra were recorded for NRLR-Cl in D2O, then an equivalent volume of 1-octanol was added to the same NMR tube, and the ^1H NMR was recorded again. The measurements were performed in triplicate. The Pow was calculated based on the concentrations of the NRLR-Cl in the D2O layer and in the octanol layer, as determined based on the NMR peak values. The average measured log POW of NRLR-Cl is 1.816.

[3] = test system: enhanced lipase (Candida rugens); experiment: Lipase assay; type: in vitro ADME
Method: NRLR was subjected to a lipase assay in 10% DMSO, 450 μL HEPES buffer, and enhanced lipase (Candida rugens).

[4] = 1-octanol/D2O, single experiment, listed as NRLR-CI

| Compound | stability to PNP (in words) ([1]; 1H NMR) | overall trend of stability of NR esters to PNP [1] | solubility in water (Solubility in water) | ester hydrolysis / deprotection observed during PNP incubation ([1]; 1H NMR) | remaining NR diester peaks ([1]; PNP, after 2 days (FIG. 40B)) | other results |
| --- | --- | --- | --- | --- | --- | --- |
| NC(=O)c1ccc[n+]([C@@H]2O[C@H](CO)[C@@H](O)[C@H]2O)c1 [NRCl, Nicotinamide riboside, reference compound] | least stable to PNP enzyme | NRTA>NRAD>NRML>NRLR>NRCl |  |  |  | time to complete conversion/degradation to NAM after PNP addition ([1]; HEPES buffer pH 7.0, KH2PO4, 10% D2O, 25° C., 1H NMR, listed as NR): ≤ 5 min |
| CCCCCCCCCCCC(=O)OC[C@H]1O[C@@H]([n+]2cccc(C(N)=O)c2)[C@H](OC(C)=O)[C@@H]1OC(C)=O [NRLR-Cl, NRLR-Chloride] |  |  | soluble in water |  |  | Average (LogPow) ([2]; 1-octanol/D2O, average of triplicate): 1.816; logP ([2]; 1-octanol/D2O, average of triplicate, read-out: Average (LogPow)): 1.82; LogPow [2, 4]: 1.89 and 1.80 and 1.76; Pow [2, 4]: 78.66 and 63.33 and 58.88; Peak values in water layer ([2]; 1H NMR in D2O before octanol addition, listed as NRLR-CI): 0.0478 and 0.0386 and 0.0539; Peak values after octanol addition ([2]; 1H NMR, D2O layer after equivalent volume of 1-octanol, listed as NRLR-CI): 0.0006 and 0.0009 |
| CC(=O)OC[C@H]1O[C@@H]([n+]2cccc(C(N)=O)c2)[C@H](OC(C)=O)[C@@H]1OC(C)=O [NRTA, NR triacetate, reference compound] | stable to PNP; also recorded: more stable to PNP than NRCL | NRTA>NRAD>NRML>NRLR>NRCl |  | Slow partial ester hydrolysis |  | hydrolysis and NAM release with PNP ([1]; after 24 hours): very slowly hydrolyzed and releases NAM |
| CC(=O)O[C@@H]1[C@H](OC(C)=O)[C@@H](COC(=O)CC(=O)OC[C@H]2O[C@@H]([n+]3cccc(C(N)=O)c3)[C@H](OC(C)=O)[C@@H]2OC(C)=O)O[C@H]1[n+]1cccc(C(N)=O)c1 [compound 8a, NR malonate] | less stable compared to NR adipate | NRTA>NRAD>NRML>NRLR>NRCl |  |  | still showed some NR diester peaks |  |
| CC(=O)O[C@@H]1[C@H](OC(C)=O)[C@@H](COC(=O)CCCCC(=O)OC[C@H]2O[C@@H]([n+]3cccc(C(N)=O)c3)[C@H](OC(C)=O)[C@@H]2OC(C)=O)O[C@H]1[n+]1cccc(C(N)=O)c1 [compound 8d, NR adipate] | appears stable to PNP | NRTA>NRAD>NRML>NRLR>NRCl |  | ester dimer appeared to remain intact | still showed some NR diester peaks |  |
| NR-laurate (NRLR) triflate [compound 8g] | less stable compared to NR adipate | NRTA>NRAD>NRML>NRLR>NRCl | not completely soluble in water | partial deprotection of the esters over time |  | partial loss of one ester [3]: < 5%; effect of increased concentration of lipase ([3]; over 12 hours of incubation): no effect; solubility in water (Solubility in water; listed as NRLR-OTf): is not; increase in NAM ([1]; PNP, after 1 day (FIG. 40A)): 30%; degraded to NAM ([1]; PNP, after 2 days (FIG. 40B)): ~90%; overall increase in NAM ([1]; PNP, over 24 hours): 17% |
